This note sets out measurements from PubChem BioAssay (NCI).

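Where inhibition never reached the appropriate level, the endpoint shown equals the highest concentration tested. Otherwise, values were interpolated linearly from a five-concentration, 48-hour dose response in 96-well plates. At the GI50, growth is halved. TGI: total growth inhibition.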 Some results are limits rather than exact numbers.

Some test systems named below: MALME-3M melanoma; A549 NSCLC; OVCAR-5 ovarian; MOLT-4 leukemia; CAKI-1 renal; SK-MEL-28 melanoma; SK-OV-3 ovarian; OVCAR-3 ovarian; ACHN renal; HCT-116 colon.
Holding throughout (assay): inhibition of tumour cell growth, NCI panel, 48 h

Consider `COC1=CC(=O)[C@@]2(C)C(C)[C@H](c3ccccc3)[C@H]2C1=O` (stereo not given in full), for which the TGI in the experiment with MALME-3M melanoma, with A549 NSCLC, with OVCAR-5 ovarian, in the experiment on MOLT-4 leukemia, with CAKI-1 renal and with SK-MEL-28 melanoma was over 100 µM each time. Also, the TGI in the experiment on SK-OV-3 ovarian, in the experiment on OVCAR-3 ovarian and in the experiment with ACHN renal was over 100 µM each time.
On to `O=C(OC[C@H]1C[C@H]2C(=O)OCCC[C@H]2O1)c1ccccc1`, for which the TGI in the experiment with A549 NSCLC, with OVCAR-5 ovarian, in the experiment on MOLT-4 leukemia, in the experiment with CAKI-1 renal, with HCT-116 colon and in the experiment on SK-MEL-28 melanoma was over 100 µM throughout. Moreover, the TGI in the experiment with SK-OV-3 ovarian, in the experiment with OVCAR-3 ovarian and in the experiment on ACHN renal was over 100 µM each time.
As to `C#C[C@]1(O)CC[C@H]2[C@@H]3CCC4=C/C(=N/OC(=O)c5cccc6cc7ccccc7nc56)CC[C@@H]4[C@H]3CC[C@@]21CC`, the TGI in the experiment with A549 NSCLC, in the experiment on OVCAR-5 ovarian, with MOLT-4 leukemia, in the experiment on CAKI-1 renal, with HCT-116 colon and in the experiment with SK-MEL-28 melanoma was over 100 µM in each case. Besides, the TGI in the experiment on SK-OV-3 ovarian, in the experiment with OVCAR-3 ovarian and in the experiment with ACHN renal was over 100 µM in each case.
On to `Cc1cc2nc3c(N)nn(CCCN(C)C)c3nc2cc1C`, for which the TGI with A549 NSCLC, with OVCAR-5 ovarian, in the experiment with CAKI-1 renal, in the experiment on HCT-116 colon, in the experiment on SK-MEL-28 melanoma and in the experiment on SK-OV-3 ovarian was over 100 µM in each case. In addition, the TGI with OVCAR-3 ovarian and in the experiment with ACHN renal was over 100 µM throughout.
As for `CC1(C)OCC(/C=C\C(O)CC2(C)OCCO2)CO1` (stereo not given), the TGI in the experiment on A549 NSCLC, in the experiment on OVCAR-5 ovarian, in the experiment with MOLT-4 leukemia, with CAKI-1 renal, in the experiment with HCT-116 colon and with SK-MEL-28 melanoma was over 100 µM each time. In addition, the TGI in the experiment on SK-OV-3 ovarian, in the experiment with OVCAR-3 ovarian and in the experiment on ACHN renal was over 100 µM throughout.
As for `CC(=O)N(C(=O)CC(=O)N1N=C(C)C(N=Nc2cccc([N+](=O)[O-])c2)C1=O)c1ccc(Cl)cc1` (stereo not given), the TGI in the experiment with MALME-3M melanoma, with A549 NSCLC, in the experiment on OVCAR-5 ovarian, with CAKI-1 renal, in the experiment on HCT-116 colon and in the experiment with SK-MEL-28 melanoma was over 10 µM each time. Further, the TGI in the experiment with SK-OV-3 ovarian, in the experiment with OVCAR-3 ovarian and with ACHN renal was over 10 µM each time.
`O=C1c2cccc3cc([N+](=O)[O-])cc(c23)C(=O)N1c1ccc(OCCN2CCCC2)cc1`: the TGI was 30.9 µM with MALME-3M melanoma; 20.6 µM in the experiment with A549 NSCLC; 51.7 µM with OVCAR-5 ovarian; 56.7 µM with MOLT-4 leukemia; over 100 µM in the experiment on CAKI-1 renal; 46.7 µM in the experiment on HCT-116 colon. In addition, the TGI in the experiment on SK-MEL-28 melanoma was 45.9 µM; in the experiment with ACHN renal, 28.1 µM.
On to `C=CC[PH+](c1ccccc1)c1ccccc1.C=CC[PH+](c1ccccc1)c1ccccc1.[Pt+2].[S-]c1nc2ccccc2[nH]1.[S-]c1nc2ccccc2[nH]1`, for which the GI50 in the experiment on OVCAR-5 ovarian was 2.14 µM; in the experiment on MOLT-4 leukemia, 2.87 µM; in the experiment with CAKI-1 renal it was 2.54 µM; in the experiment on SK-OV-3 ovarian, 3.16 µM; with OVCAR-3 ovarian, 1.9 µM; in the experiment on ACHN renal it was 3.89 µM. Besides, the TGI is 5.42 µM with OVCAR-5 ovarian; over 100 µM in the experiment on MOLT-4 leukemia; 12.8 µM in the experiment on CAKI-1 renal; 27.4 µM in the experiment on SK-OV-3 ovarian; 5.16 µM in the experiment on OVCAR-3 ovarian; over 100 µM in the experiment with ACHN renal.
With `O=C1OCc2nc3c(c(-c4ccccc4C(F)(F)F)c21)C(=O)OC3`, the TGI in the experiment with MALME-3M melanoma, in the experiment on A549 NSCLC, in the experiment on OVCAR-5 ovarian, with MOLT-4 leukemia, with HCT-116 colon and in the experiment on SK-MEL-28 melanoma was over 100 µM each time. Besides, the TGI with SK-OV-3 ovarian, in the experiment on OVCAR-3 ovarian and in the experiment on ACHN renal was over 100 µM each time.
In the case of `O=C(Cn1c(=O)oc2ccccc21)N(c1ccccc1)c1ccccc1`, the TGI with MALME-3M melanoma, in the experiment with OVCAR-5 ovarian, in the experiment with MOLT-4 leukemia, with CAKI-1 renal, with HCT-116 colon and in the experiment with SK-MEL-28 melanoma was over 100 µM each time. For the same compound, the TGI in the experiment with SK-OV-3 ovarian, with OVCAR-3 ovarian and with ACHN renal was over 100 µM in each case.
As to `O=C1C=C2SC3C[C@@]24CC1(O)[N+]1=c2c4c(c(O)c4c2=C(C=N4)CC1)N3`, the TGI worked out at 4.11 µM in the experiment with A549 NSCLC; 3.8 µM with OVCAR-5 ovarian; 0.859 µM in the experiment on MOLT-4 leukemia; 4 µM with CAKI-1 renal; 0.492 µM in the experiment on HCT-116 colon; 3.03 µM with SK-MEL-28 melanoma. Further, the TGI in the experiment with SK-OV-3 ovarian was found to be 3.78 µM; in the experiment on OVCAR-3 ovarian it was 0.515 µM.
Regarding `NC1=Nc2ncccc2C(=O)NN1`, the TGI in the experiment on MALME-3M melanoma, in the experiment with A549 NSCLC, in the experiment with OVCAR-5 ovarian, in the experiment on MOLT-4 leukemia, in the experiment with HCT-116 colon and in the experiment with SK-MEL-28 melanoma was over 10 µM in each case. For the same compound, the TGI with SK-OV-3 ovarian, with OVCAR-3 ovarian and in the experiment on ACHN renal was over 10 µM in each case.
In the case of `CN1N=C(c2ccncc2)OC1c1ccc(C(F)(F)F)cc1` (stereo not given), the TGI in the experiment with A549 NSCLC, in the experiment with OVCAR-5 ovarian, with MOLT-4 leukemia, in the experiment with HCT-116 colon, in the experiment with SK-MEL-28 melanoma and in the experiment with SK-OV-3 ovarian was over 100 µM each time. Also, the TGI with OVCAR-3 ovarian and in the experiment on ACHN renal was over 100 µM throughout.
With `Clc1ccc(Cc2nc3cc4ccccc4cc3[nH]2)cc1Cl`, the TGI in the experiment with MALME-3M melanoma was 39.4 µM; with A549 NSCLC it was 68.9 µM; in the experiment on OVCAR-5 ovarian it was over 100 µM; in the experiment with MOLT-4 leukemia, 4.03 µM; with CAKI-1 renal it was 43.5 µM; in the experiment on HCT-116 colon it was over 100 µM. Moreover, the TGI in the experiment with SK-MEL-28 melanoma is 29.4 µM; in the experiment on OVCAR-3 ovarian, 61 µM; in the experiment with ACHN renal, 81.2 µM.
